Test results: publication PMC11768629, “Potential Interaction of Pinocembrin with Drug Transporters and Hepatic Drug-Metabolizing Enzymes” (Pharmaceuticals, 2025)

How the values were obtained:
hOAT1 = target: T1, hOAT1 (Homo sapiens, UniProt Q4U2R8); assay: Cis-inhibition assay, 3H-PAH uptake in hOAT1-MDCK cells; type: cell-based; conditions: 10 µM pinocembrin, compared with vehicle control
T1 construct: host or cells: MDCK
T1 sequence (Q4U2R8 1-563): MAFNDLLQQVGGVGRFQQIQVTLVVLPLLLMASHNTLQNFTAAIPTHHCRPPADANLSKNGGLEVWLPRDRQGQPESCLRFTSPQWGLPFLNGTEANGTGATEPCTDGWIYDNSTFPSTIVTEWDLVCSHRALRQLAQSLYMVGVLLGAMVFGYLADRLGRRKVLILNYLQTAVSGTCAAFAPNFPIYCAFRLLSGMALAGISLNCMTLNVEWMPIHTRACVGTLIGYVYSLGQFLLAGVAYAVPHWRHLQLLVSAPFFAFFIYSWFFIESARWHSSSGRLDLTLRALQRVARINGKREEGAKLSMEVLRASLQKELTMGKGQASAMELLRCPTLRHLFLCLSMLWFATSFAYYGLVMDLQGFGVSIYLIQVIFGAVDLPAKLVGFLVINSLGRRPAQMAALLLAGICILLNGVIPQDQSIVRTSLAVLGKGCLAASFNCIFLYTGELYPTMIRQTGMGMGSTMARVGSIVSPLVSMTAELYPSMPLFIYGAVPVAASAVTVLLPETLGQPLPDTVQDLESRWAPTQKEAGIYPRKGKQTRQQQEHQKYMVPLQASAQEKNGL
Experimental: (§1) Next, the effects of pinocembrin on the transport function of renal drug transporters, including hOAT1, hOAT3, hOCT1, hOCT2, hMATE1, and hMATE2, were determined.
(§2) A cell monolayer comprising hOAT1-MDCK, hOAT3-MDCK, hOCT1-CHO-K1, hOCT2-CHO-K1, hMATE1-CHO-K1, hMATE2-CHO-K1, and mock cells were utilized for the uptake experiments. The cells were washed three times with a buffer containing (in mM) 140 NaCl, 5 KCl, 0.4 MgSO4, 0.5 MgCl2, 1 CaCl2, 0.3 Na2HPO4, 0.4 KH2PO4, 6 D-glucose, and 4 NaHCO3 at pH 7.4 and incubated at 37 °C for 15 min. After incubation, the hOAT1-MDCK and hOAT3-MDCK cells were incubated for 10 min with ^3H-PAH and ^3H-estrone sulfate, a substrate of hOAT1 and hOAT3, respectively. The hOCT1-CHO-K1 and hOCT2-CHO-K1 cells were incubated with ^3H-MPP^+, a substrate of OCT1 and OCT2, for five minutes. The functions of MATE1 and MATE2 were determined by incubating the hMATE1-CHO-K1 and hMATE2-CHO-K1 cells with a buffer containing ^3H-MPP^+, a substrate of MATE1 and MATE2, at pH 8.5 for five minutes. The cells were washed three times with an ice-cold buffer to stop the transport function. The cells were lyzed with 0.4 N NaOH for at least four hours. The samples were collected and transferred to vials containing a liquid scintillation cocktail to measure radioactivity by a β-counter (Packard BioScience, Wellesley, MA, USA). […]

hOAT3-MDCK cells = assay: Cell viability assay (MTT) in hOAT3-MDCK cells; type: cell-based, canine; conditions: pinocembrin 1, 10 and 50 μM, compared to vehicle-treated cells
Experimental: The hOAT1-MDCK cells and hOAT3-MDCK cells were treated with 1, 10, and 50 μM pinocembrin for 24 h, followed by a measurement of ^3H-PAH and ^3H-estrone sulfate cellular accumulation. […] The inhibitory effect of pinocembrin occurred in a concentration-dependent manner.
We determined whether the inhibitory effect of pinocembrin on hOAT1 and hOAT3. We studied whether pinocembrin could reduce the renal toxicity of tenofovir, a substrate of hOAT1 and hOAT3 known for inducing renal tubular dysfunction.
The confluent cells in 96-well plates were treated with pinocembrin for 48 h at 37 °C. After that, the cells were incubated with 0.5 mg/mL MTT solution for four hours. The MTT solution was removed, and DMSO (100 µL) was added to dissolve the crystal formazan. The formazan content was detected at a wavelength of 570 nm using a microplate reader. Cell viability was reported as a percentage of the vehicle-treated cells.

hOCT2 = target: T2, hOCT2 (Homo sapiens, UniProt O15244); assay: Cis-inhibition assay, 3H-MPP+ uptake in hOCT2-CHO-K1 cells; type: cell-based; conditions: pinocembrin
T2 construct: host or cells: CHO-K1
T2 sequence (O15244 whole entry): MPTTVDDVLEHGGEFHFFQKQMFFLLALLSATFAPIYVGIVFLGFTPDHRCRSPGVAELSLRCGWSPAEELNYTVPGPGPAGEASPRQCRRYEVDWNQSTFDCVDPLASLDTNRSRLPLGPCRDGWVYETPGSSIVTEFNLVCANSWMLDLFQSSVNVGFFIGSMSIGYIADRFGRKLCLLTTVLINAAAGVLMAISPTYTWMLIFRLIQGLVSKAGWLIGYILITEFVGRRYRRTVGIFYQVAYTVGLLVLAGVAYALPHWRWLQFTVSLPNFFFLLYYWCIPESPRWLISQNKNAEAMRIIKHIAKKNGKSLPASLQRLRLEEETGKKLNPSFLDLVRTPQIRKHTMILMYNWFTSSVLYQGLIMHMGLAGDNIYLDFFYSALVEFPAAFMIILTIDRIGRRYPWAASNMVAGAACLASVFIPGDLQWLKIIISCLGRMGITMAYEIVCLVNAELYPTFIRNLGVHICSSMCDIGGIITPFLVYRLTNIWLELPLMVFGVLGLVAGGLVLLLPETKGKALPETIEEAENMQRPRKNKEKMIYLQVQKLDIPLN
Experimental: as §1, §2

CYP2D6 = test system: CYP2D6; set-up: method as in PMID 34069400, doi:10.5562/cca3652, PMID 26626242; conditions: cited from earlier work
P-gp = conditions: cited from earlier work

3H-PAH cellular accumulation (hOAT1): significantly decreased | hOCT2-mediated uptake of 3H-MPP+ (hOCT2): did not alter
SMILES: O=C1C[C@@H](c2ccccc2)Oc2cc(O)cc(O)c21 [pinocembrin]
cell viability (hOAT3-MDCK cells): did not affect cell viability | effect on the activity of CYP2D6 (CYP2D6): inhibits the activities | effect on the P-gp in the blood–brain barrier (BBB) (P-gp): little effect | effect on the function of P-gp (P-gp): did not inhibit
